Assay results taken from patent US8252543B2, “Method for detecting candidate alzheimer's disease drug” (Tomohiro Chiba, priority 2006, dated 2012).
“Also recorded” adds a separate entry of the source. Where no end group is shown, it is not given here.

B1: CNTF: ciliary neurotrophic factor (protein, UniProt P26441 1-200, looked up)
Ciliary neurotrophic factor: MAFTEHSPLTPHRRDLCSRSIWLARKIRSDLTALTESYVKHQGLNKNINLDSADGMPVASTDQWSELTEAERLQENLQAYRTFHVLLARLLEDQQVHFTPTEGDFHQAIHTLLLQVAAFAYQIEELMILLEYKIPRNEADGMPINVGDGGLFEKKLWGLKVLQELSQWTVRSIHDLRFISSHQTGIPARGSHYIANNKKM

Assays:
STAT3 [1] = test: STAT3 phosphorylation in PC12 cells (immunoblot); type: cell-based; settings: CNTF 50 ng/ml, IL-6 50 ng/ml, Colivelin 100 pM
Procedure: (§1) To examine the ability of Colivelin to phosphorylate STAT3 in vivo, a solvent (FIGS. 3A and 3C) or Colivelin (FIGS. 3B and 3D) was administered transnasally to mice twice at 24 hours-intervals. Brain samples were collected 30 minutes after the final administration, and then fresh frozen sections were prepared therefrom. The sections were then stained with an anti-phospho-STAT3 antibody. […] To examine the effect of Colivelin to phosphorylate STAT3 in vitro, PC12 cells were treated with a vehicle (MQ), CNTF, IL-6, Humanin (HN), D-Ser14-HN (D-14), and Colivelin (Col) for […] for stimulation. Phosphorylated STAT3 and total STAT3 were detected by an immunoblot method (FIG. 3E).
PC12 cells were cultured in DNEM (Wako) containing 10% serum (10%-DMEM). For phosphorylation analysis, PC12 cells (cultured at 1.6×10^5 cells/well in a 6-well plate containing serum-free DMEM for 24 hours) were stimulated with a ciliary neurotrophic factor (CNTF, 50 ng/ml), interleukin-6 (IL-6, 50 ng/ml), HN ([…], D-Ser14-HN (D-14, 10 μM, and Colivelin (100 pM) for 15 minutes. Cells were rinsed once with PBS and then lysed in a buffer solution containing phosphatase inhibitors (50 mM Tris HCl [pH7.4], 150 mM NaCl, 1% Triton-X 100, protease inhibitors, 1 mM EDTA, and phosphatase inhibitor cocktails 1 and 2 [Sigma]). Collected samples were separated by normal SDS-PAGE and were then electrically blotted onto PVDF membranes. Detection was performed using an anti-phospho-STAT3 (1:500 dilution) antibody and horseradish peroxidase (HRP)-labeled anti-rabbit IgG antibody (BioRad Laboratories, Hercules, Calif., U.S.A.). Immunoreactive bands were visualized using ECL Western Blotting Detection Reagents (Amersham Bioscience, Uppsala, Sweden). Immunoreactive bands corresponding to total-STAT3 antibody (1:3000 dilution) were subjected to detection on the identical membrane stripped and then determined to be controls.

Tg2576 mice [2] = test: Water-finding task (WFT) in Tg2576 mice; type: in vivo; settings: nasal administration for 3 weeks (every other day)
Procedure: (§2) Tg2576 mice and wild-type control mice at 15 months of age were tested by Y-maze test (YM) (FIG. 4A, left). […] Mice were then subjected to nasal administration of Colivelin or a vehicle for 3 weeks. Subsequently, mice were again tested by Y-maze test. […] However, Colivelin administration seemed to ameliorate tendencies observed in Tg2576 to which the vehicle had been administered, such as delay in transfer latency, shortened 1 stay, and prolonged time spent in open arm (difficult to fear).
(§3) Y-maze test (YM) was performed as described in the document (Yamada M et al., Behav Brain Res (2005) 164: 139-146). The apparatus for YM is composed of three grey plastic arms (40 cm long, 12 cm high, 3 cm wide at the bottom, and 10 cm wide at the top). Mice were each allowed to explore the maze freely under observation for 8 minutes. Spontaneous alternation behavior % (SA %) is an indication of spatial working memory and is calculated using a ratio of the arm choices differing from the previous two choices to total choices during the run. […] The time between the onset of exploration and entering to the alcove (Entering latency), initiation of drinking from the water tube (Drinking latency), and the number of grid-line crossing during the test were measured Elevated-plus maze (EPM) was performed as described in the document (Kawasumi M et al., Eur J Neurosci (2004) 19: 2826-2838). […]

STAT3 [3] = test: Anti-phospho-STAT3 staining of hippocampus of Tg2576 and wild-type mice after Colivelin administration; type: in vivo; settings: for STAT3 phosphorylation in Tg2576 hippocampus (anti-phospho-STAT3 staining): Tg2576 mice after 3 weeks nasal administration
Procedure: The brain sections of Tg2576 mice to which Colivelin had been administered were collected, paraffin-embedded samples were prepared therefrom, and then anti-phospho-STAT3 staining was performed. FIGS. 5A and 5B denote wild-type mice to which a vehicle had been administered; FIGS. 5C and 5D denote wild-type mice to which Colivelin had been administered; FIGS. 5E and 5F denote Tg2576 to which the vehicle had been administered; and FIGS. 5G and 5H denote the hippocampus of Tg2576 to which Colivelin had been administered.
Immunohistochemical analysis was performed as described in the document (Yamada M et al., Behav Brain Res (2005) 164: 139-146; Chiba T et al., J Neurosci (2005) 25: 10252-10261). Mice were transcardially perfused with phosphate buffered saline (PBS) and then perfused with 4% paraformaldehyde (PFA). Paraffine-embedded sections or fresh frozen sections, each having a thickness of 10 μm, were prepared. Immunohistochemical detection was performed with anti-phospho-STAT3 antibody (1:100 dilution). Staining images were visualized with the ABC method (Vectastain Elite Kit, Vector, Calif. U.S.A.) or Tyramide signal enhancer kit (Perkin-Elmer).
We confirmed STAT3 activation in the brains of mice to which Colivelin had been nasally administered twice every 24 hours (FIGS. 3A-D). […] We also confirmed STAT3 phosphorylation in an in vitro experiment using PC12 cells. […] To confirm the therapeutic effect of STAT3 activation, an experiment (nasal administration of Colivelin to mice) was conducted for Tg2576 mice, which had been tested by Y-maze test (YM) and confirmed to have memory disorder at 15 months of age (FIG. 4A, left panel). After 3 weeks of administration (administered every other day), their cognitive functions were analyzed by YM, water-finding task (WFT), and elevated-plus maze (EPM). […] We performed phospho-STAT3 immunostaining using the brains of these mice (FIG. 5). We observed significant loss of phospho-STAT3 immunoreactivity in the control Tg2576 mice to which the vehicle had been administered, compared with the wild-type mice.

Tg2576 mice [4] = test: Elevated-plus maze (EPM) in Tg2576 mice; type: in vivo; settings: nasal administration for 3 weeks (every other day)
Procedure: as §2, §3

STAT3 [5] = settings: reported in Hashimoto 2005, Chiba 2005; cited from earlier work
STAT3 [6] = test: STAT3 phosphorylation in mouse brain after transnasal Colivelin (anti-phospho-STAT3 immunohistochemistry); type: in vivo; settings: mice, transnasal twice at 24 hours-intervals, brain collected 30 minutes after final administration, vs vehicle
Procedure: as §1
Immunohistochemical analysis was performed as described in the document (Yamada M et al., Behav Brain Res (2005) 164: 139-146; Chiba T et al., J Neurosci (2005) 25: 10252-10261). Mice were transcardially perfused with phosphate buffered saline (PBS) and then perfused with 4% paraformaldehyde (PFA). Paraffine-embedded sections or fresh frozen sections, each having a thickness of 10 μm, were prepared. […]
We confirmed STAT3 activation in the brains of mice to which Colivelin had been nasally administered twice every 24 hours (FIGS. 3A-D). […] After 3 weeks of administration (administered every other day), their cognitive functions were analyzed by YM, water-finding task (WFT), and elevated-plus maze (EPM). […]

Tg2576 mice [7] = test: Y-maze test (YM) in Tg2576 mice; type: in vivo; settings: Tg2576 mice 15 months of age, nasal administration for 3 weeks (every other day)
Procedure: as §2, §3

Molecule | STAT3 phosphorylation (phosphorylated STAT3 vs total STAT3, immunoblot) (STAT3 [1]) | WFT indices of memory including drinking latency, entering latency, and crossing (Tg2576 mice [2]) | STAT3 phosphorylation in Tg2576 hippocampus (anti-phospho-STAT3 staining) (STAT3 [3]) | STAT3 phosphorylation in Tg2576 hippocampus (anti-phospho-STAT3 staining) (STAT3 [3]; listed as Coliverlin) | STAT3 phosphorylation levels in wild-type hippocampus (anti-phospho-STAT3 staining) (STAT3 [3]; wild-type mice after Colivelin administration) | EPM (transfer latency, 1st stay, time spent in open arms) (Tg2576 mice [4]) | In vitro STAT3 activation / suppression of cell death (STAT3 [5]) | STAT3 phosphorylation in cerebral cortex (anti-phospho-STAT3 staining) (STAT3 [6]) | STAT3 phosphorylation in hippocampus (anti-phospho-STAT3 staining) (STAT3 [6]) | Spontaneous alternation behavior % (SA %), spatial working memory (Tg2576 mice [7])
IL-6: interleukin-6 | STAT3 had been phosphorylated; also recorded: STAT3 is phosphorylated |  |  |  |  |  |  |  |  | 
SALLRSIPAPAGASRLLLLTGEIDLP [Colivelin] | STAT3 had been phosphorylated; also recorded: STAT3 is phosphorylated | significant amelioration was observed; also recorded: improvement in cognitive functions was confirmed | levels close to those in the case of wild-type mice to which the vehicle had been administered | recovery of phospho-STAT3 immunoreactivity | slightly increased | No significant differences were observed; also recorded: no significant changes were observed | activates in vitro STAT3 so as to suppress cell death | no significant changes were observed; also recorded: no significant differences were confirmed | Significant STAT3 phosphorylation was observed; also recorded: Hippocampus-predominant STAT3 phosphorylation | significantly improved; also recorded: improvement in cognitive functions was confirmed
B1 | STAT3 had been phosphorylated; also recorded: STAT3 is phosphorylated |  |  |  |  |  |  |  |  | 
